Results: article PMC10828244, “Covalently Binding Adenosine A3 Receptor Agonist ICBM Irreversibly Reduces Voltage-Gated Ca^2+ Currents in Dorsal Root Ganglion Neurons” (Purinergic Signalling, 2023)

What was measured:
[1] = biological target: T1, adenosine A3 receptor (A3AR) (Rattus norvegicus, UniProt P28647); assay: whole-cell patch clamp of Ca2+ currents in rat DRG neurons ([…]); effect occluded by ICBM pre-incubation; type: cell-based
T1 construct: gene Adora3; native receptor in isolated rat DRG neurons
T1 sequence (P28647 1-320): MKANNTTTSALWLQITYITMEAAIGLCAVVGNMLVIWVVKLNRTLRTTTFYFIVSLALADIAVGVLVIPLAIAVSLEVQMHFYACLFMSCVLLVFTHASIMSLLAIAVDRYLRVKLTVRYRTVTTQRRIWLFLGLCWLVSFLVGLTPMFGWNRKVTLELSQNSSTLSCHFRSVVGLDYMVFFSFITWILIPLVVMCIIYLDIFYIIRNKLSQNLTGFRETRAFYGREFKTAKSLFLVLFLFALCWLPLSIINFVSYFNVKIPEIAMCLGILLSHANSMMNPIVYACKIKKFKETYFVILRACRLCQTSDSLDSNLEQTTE

[2] = biological target: T1, adenosine A3 receptor (A3AR); assay: whole-cell patch clamp of Ca2+ currents in rat DRG neurons; washout, MRS1523 block and occlusion of Cl-IB-MECA; type: cell-based

| SMILES | whole-cell patch clamp of Ca2+ currents in rat DRG neurons (30 nM); effect occlu [1] | EC50 [2] [nM] |
| --- | --- | --- |
| CNC(=O)[C@H]1O[C@@H](n2cnc3c(NCc4cccc(I)c4)nc(Cl)nc32)[C@H](O)[C@@H]1O [Cl-IB-MECA, 2-Chloro-N^6-(3-iodobenzyl)-adenosine-5′-N-methyluronamide] | the prototypical A3AR agonist, Cl-IB-MECA, significantly decreases ICa (Fig. 2A–B) in these cells |  |
| CNC(=O)[C@H]1O[C@@H](n2cnc3c(NCc4cccc(N=C=S)c4)ncnc32)[C@H](O)[C@@H]1O [ICBM, N^6-(3-Isothiocyanatobenzyl)-5′-N-methylcarboxamidoadenosine] |  | 11.7 |
